CC50 and MIC data for 21 compounds are collected here from PMC9078972 (RSC Advances, 2018).

≈ marks a conversion by molar mass, not a printed value. Bounds are passed on as bounds.

Data set [1] is described as follows: Cytotoxicity against VERO cells. It counts as cell-based. To be noted: African green monkey, VERO cells (kidney epithelial cells).
The subject of data set [2] is Mycobacterium tuberculosis H37Ra. As to the kind of experiment: microbe, parasite or virus in culture. The format is cell-based.

As usually defined, the CC50 is the concentration at which the toxic effect on the cells reaches its halfway point.

`CCCCN1CCN(c2nc(=O)c3cc(C(F)(F)F)cc([N+](=O)[O-])c3s2)CC1=O` [Compound 1d, 2-(4-Butyl-3-oxopiperazin-1-yl)-8-nitro-6-(trifluoromethyl)-4H-benzo[e][1,3]-thiazin-4-one]: the CC50 in data set [1] is greater than 10 µM. Consider `CCOC(=O)C1CCN(c2nc(=O)c3cc(C(F)(F)F)cc([N+](=O)[O-])c3s2)CC1` [Compound 2a, Ethyl 1-(8-nitro-4-oxo-6-(trifluoromethyl)-4H-benzo[e][1,3]thiazin-2-yl)piperidine-4-carboxylate], for which the MIC in data set [2] was determined as 0.008 µM (≈ 3.45 ng/mL). The same compound returned a CC50 in data set [1] greater than 10 µM. The corresponding values for `CCOC(=O)CN1CCN(c2nc(=O)c3cc(C(F)(F)F)cc([N+](=O)[O-])c3s2)CC1` [Compound 2b, Ethyl 2-(4-(8-nitro-4-oxo-6-(trifluoromethyl)-4H-benzo[e][1,3]thiazin-2-yl)-piperazin-1-yl)acetate] are 0.02 µM (≈ 8.93 ng/mL) and greater than 10 µM. The like results for `CCOC(=O)CC1CCN(c2nc(=O)c3cc(C(F)(F)F)cc([N+](=O)[O-])c3s2)CC1` [Compound 2c, Ethyl 2-(1-(8-nitro-4-oxo-6-(trifluoromethyl)-4H-benzo[e][1,3]thiazin-2-yl)-piperidin-4-yl)acetate] were, in that order, 0.016 µM (≈ 7.13 ng/mL) and greater than 10 µM.

`CCOC(=O)C(C)N1CCN(c2nc(=O)c3cc(C(F)(F)F)cc([N+](=O)[O-])c3s2)CC1` (stereo not shown) [Compound 2d, Ethyl 2-(4-(8-nitro-4-oxo-6-(trifluoromethyl)-4H-benzo[e][1,3]thiazin-2-yl)-piperazin-1-yl)propanoate] yielded an MIC in data set [2] of 0.008 µM (≈ 3.68 ng/mL). In data set [2], `O=C1OCCC1N1CCN(c2nc(=O)c3cc(C(F)(F)F)cc([N+](=O)[O-])c3s2)CC1` (stereo not shown) [Compound 2f, 8-Nitro-2-(4-(2-oxotetrahydrofuran-3-yl)piperazin-1-yl)-6-(tri-fluoromethyl)-4H-benzo[e][1,3]thiazin-4-one] had an MIC of 0.064 µM (≈ 28.4 ng/mL). The compound further returned a half-maximal cytotoxic concentration (CC50) in data set [1] greater than 10 µM. Consider `CCCC1CC(N2CCN(c3nc(=O)c4cc(C(F)(F)F)cc([N+](=O)[O-])c4s3)CC2)C(=O)O1` (stereo not shown) [Compound 2g, 8-Nitro-2-(4-(2-oxo-5-propyltetrahydrofuran-3-yl)piperazin-1-yl)-6-(trifluoromethyl)-4H-benzo[e][1,3]thiazin-4-one], for which, in data set [2], the MIC turned out to be 0.016 µM (≈ 7.78 ng/mL). In data set [1], this compound came in with a 50% cytotoxic concentration (CC50) greater than 10 µM. Regarding `O=C(OC1CCN(c2nc(=O)c3cc(C(F)(F)F)cc([N+](=O)[O-])c3s2)CC1)c1ccc(F)cc1` [Compound 2h, 1-(8-Nitro-4-oxo-6-(trifluoromethyl)-4H-benzo[e][1,3]thiazin-2-yl)piperidin-4-yl 4-fluorobenzoate], the MIC in data set [2] is no more than 0.002 µM. On to `O=C(OC1CCN(c2nc(=O)c3cc(C(F)(F)F)cc([N+](=O)[O-])c3s2)CC1)c1ccccc1F` [Compound 2i, 1-(8-Nitro-4-oxo-6-(trifluoromethyl)-4H-benzo[e][1,3]thiazin-2-yl)piperidin-4-yl 2-fluorobenzoate], for which the MIC in data set [2] is no more than 0.002 µM. The CC50 in data set [1] is greater than 10 µM. For `O=C(OC1CCN(c2nc(=O)c3cc(C(F)(F)F)cc([N+](=O)[O-])c3s2)CC1)c1ccccc1Cl` [Compound 2j, 1-(8-Nitro-4-oxo-6-(trifluoromethyl)-4H-benzo[e][1,3]thiazin-2-yl)piperidin-4-yl 2-chlorobenzoate], the MIC in data set [2] turned out to be 0.008 µM (≈ 4.11 ng/mL). In data set [1], this compound had a CC50 greater than 10 µM. The like results for `O=C(OC1CCN(c2nc(=O)c3cc(C(F)(F)F)cc([N+](=O)[O-])c3s2)CC1)c1ccc(C(F)(F)F)cc1` [Compound 2k, 1-(8-Nitro-4-oxo-6-(trifluoromethyl)-4H-benzo[e][1,3]thiazin-2-yl)piperidin-4-yl 4-(trifluoromethyl)benzoate] were, in that order, 0.008 µM (≈ 4.38 ng/mL) and greater than 10 µM. Turning to `COc1ccc(C(=O)OC2CCN(c3nc(=O)c4cc(C(F)(F)F)cc([N+](=O)[O-])c4s3)CC2)cc1` [Compound 2l, 1-(8-Nitro-4-oxo-6-(trifluoromethyl)-4H-benzo[e][1,3]thiazin-2-yl)piperidin-4-yl 4-methoxybenzoat], in data set [2], the MIC stood at 0.008 µM (≈ 4.08 ng/mL). The half-maximal cytotoxic concentration (CC50) in data set [1] is greater than 10 µM. The like results for `COc1ccccc1C(=O)OC1CCN(c2nc(=O)c3cc(C(F)(F)F)cc([N+](=O)[O-])c3s2)CC1` [Compound 2m, 1-(8-Nitro-4-oxo-6-(trifluoromethyl)-4H-benzo[e][1,3]thiazin-2-yl)piperidin-4-yl 2-methoxybenzoate] were, in that order, 0.063 µM (≈ 32.1 ng/mL) and greater than 10 µM. The corresponding values for `COC(=O)c1ccc(C(=O)OC2CCN(c3nc(=O)c4cc(C(F)(F)F)cc([N+](=O)[O-])c4s3)CC2)cc1` [Compound 2n, Methyl (1-(8-nitro-4-oxo-6-(trifluoromethyl)-4H-benzo[e][1,3]thiazin-2-yl)-piperidin-4-yl) terephthalate] are 0.063 µM (≈ 33.9 ng/mL) and greater than 10 µM. The like results for `CN(C)c1ccc(C(=O)OC2CCN(c3nc(=O)c4cc(C(F)(F)F)cc([N+](=O)[O-])c4s3)CC2)cc1` [Compound 2o, 1-(8-Nitro-4-oxo-6-(trifluoromethyl)-4H-benzo[e][1,3]thiazin-2-yl)piperidin-4-yl 4-(dimethylamino)benzoate] were, in that order, 0.031 µM (≈ 16.2 ng/mL) and greater than 10 µM. Compound `O=c1nc(N2CCC(Oc3ccc(F)cc3)CC2)sc2c([N+](=O)[O-])cc(C(F)(F)F)cc12` [Compound 3b, 2-(4-(4-Fluorophenoxy)piperidin-1-yl)-8-nitro-6-(trifluoro-methyl)-4H-benzo[e][1,3]-thiazin-4-one] gave an MIC in data set [2] of 0.004 µM (≈ 1.88 ng/mL). Take `Cc1ccccc1OC1CCN(c2nc(=O)c3cc(C(F)(F)F)cc([N+](=O)[O-])c3s2)CC1` [Compound 3g, 8-Nitro-2-(4-(o-tolyloxy)piperidin-1-yl)-6-(trifluoromethyl)-4H-benzo[e][1,3]thiazin-4-one]: in data set [2], the MIC was 0.016 µM (≈ 7.45 ng/mL). In data set [1], this compound showed a CC50 greater than 10 µM. The corresponding values for `O=c1nc(N2CCC(Oc3ccc(OC(F)(F)F)cc3)CC2)sc2c([N+](=O)[O-])cc(C(F)(F)F)cc12` [Compound 3h, 8-Nitro-2-(4-(4-(trifluoromethoxy)phenoxy)piperidin-1-yl)-6-(trifluoromethyl)-4H-benzo[e][1,3]thiazin-4-one] are 0.008 µM (≈ 4.28 ng/mL) and greater than 10 µM.

In the case of `O=c1nc(N2CCC(Oc3ccccn3)CC2)sc2c([N+](=O)[O-])cc(C(F)(F)F)cc12` [Compound 3k, 8-Nitro-2-(4-(pyridin-2-yloxy)piperidin-1-yl)-6-(trifluoro-methyl)-4H-benzo[e][1,3]thiazin-4-one], the MIC in data set [2] was determined as 0.031 µM (≈ 14 ng/mL). This compound displayed a half-maximal cytotoxic concentration (CC50) in data set [1] greater than 10 µM. The like results for `O=c1nc(N2CCC(Oc3ccc(F)cn3)CC2)sc2c([N+](=O)[O-])cc(C(F)(F)F)cc12` [Compound 3l, 2-(4-((5-Fluoropyridin-2-yl)oxy)piperidin-1-yl)-8-nitro-6-(tri-fluoromethyl)-4H-benzo[e][1,3]thiazin-4-one] were, in that order, 0.031 µM (≈ 14.6 ng/mL) and greater than 10 µM. As to `O=c1nc(N2CCC(Oc3nccc(C(F)(F)F)n3)CC2)sc2c([N+](=O)[O-])cc(C(F)(F)F)cc12` [Compound 3n, 8-Nitro-6-(trifluoromethyl)-2-(4-((4-(trifluoromethyl)pyrimidin-2-yl)oxy)piperidin-1-yl)-4H-benzo[e][1,3]thiazin-4-one], the MIC in data set [2] stood at 0.004 µM (≈ 2.09 ng/mL).
